Data: ChEMBL document CHEMBL4011633, “Donepezil-Based Central Acetylcholinesterase Inhibitors by Means of a "Bio-Oxidizable" Prodrug Strategy: Design, Synthesis, and in Vitro Biological Evaluation” (J Med Chem, 2017)
The source made the active and inactive calls. No cut-off for these calls is given here.

Assays:
[1] = (§1) Prodrug activation in 2% PBS riboflavin at 25 uM assessed as (+/-)-1-[(3-Chlorophenyl)methyl]-4-[(5,6-dimethoxy-1-oxo-indan-2-yl)methyl]pyridin-1-ium-3-carboxamide Bromide formation after 180 mins in the presence of (+/-)-1-[(3-Chlorophenyl)methyl]-4-[(5,6-dimethoxy-1-oxo-indan-2-yl)methyl]pyridin-1-ium-3-carboxamide Bromide
[2] = as §1, with “pH 7.4” for “2%”, “buffer” for “riboflavin”
Mus musculus [3] = assay: Toxicity in CD1 mouse kidney at 10 mg/kg, ip qd administered daily for 14 days by macroscopic method; type: organism-based; conditions: in vivo, 336 h
[4] = Toxicity in ip dosed CD1 mouse assessed as mortality administered as qd after 48 hrs; type: organism-based; conditions: in vivo
[5] = Effective permeability of compound at pH 7.4 at 100 uM after 4 hrs by PAMPA; type: physicochemical; conditions: read-out: Peff
Mus musculus [6] = assay: Toxicity in CD1 mouse kidney at 10 mg/kg, ip qd administered daily for 14 days by microscopic method; type: organism-based; conditions: in vivo, 336 h
Mus musculus [7] = assay: Toxicity in CD1 mouse brain at 10 mg/kg, ip qd administered daily for 14 days by macroscopic method; type: organism-based; conditions: in vivo, 336 h
Brain [8] = assay: Prodrug activation in CD1 mouse brain at 10 mg/kg, ip qd administered daily for 14 days by LC-MS/MS analysis; type: organism-based; conditions: in vivo, 336 h
[9] = as §1, with “10% methanolic silver nitrate” for “2% PBS riboflavin”
[10] = Prodrug activation in CD3OD solution assessed as (+/-)-1-[(3-Chlorophenyl)methyl]-4-[(5,6-dimethoxy-1-oxo-indan-2-yl)methyl]pyridin-1-ium-3-carboxamide Bromide formation at 10 mM after 4 to 10 mins in presence of DPPH radical solution by 1H NMR analysis
Mus musculus [11] = assay: Toxicity in CD1 mouse heart at 10 mg/kg, ip qd administered daily for 14 days by microscopic method; type: organism-based; conditions: in vivo, 336 h
Mus musculus [12] = assay: Toxicity in CD1 mouse assessed as change in spleen texture at 10 mg/kg, ip qd administered for 14 days by macroscopic method; type: organism-based; conditions: in vivo, 336 h
Mus musculus [13] = assay: Toxicity in CD1 mouse assessed as change in spleen texture at 10 mg/kg, ip qd administered for 14 days by microscopic method; type: organism-based; conditions: in vivo, 336 h
Mus musculus [14] = assay: Toxicity in CD1 mouse liver at 10 mg/kg, ip qd administered daily for 14 days by microscopic method; type: organism-based; conditions: in vivo, 336 h
Acetylcholinesterase [15] = target: T1, Acetylcholinesterase (Homo sapiens, UniProt P22303); assay: Inhibition of AChE in human erythrocytes using acetylthiocholine iodide as substrate preincubated for 5 mins followed by substrate addition measured every minute for 10 mins by Ellman's spectrophotometric method; type: cell-based
[16] = as §1, with “0.1%” for “2%”, “PBS NAD+” for “PBS”
Mus musculus [17] = assay: Toxicity in CD1 mouse brain at 10 mg/kg, ip qd administered daily for 14 days by microscopic method; type: organism-based; conditions: in vivo, 336 h
Mus musculus [18] = assay: Toxicity in CD1 mouse liver at 10 mg/kg, ip qd administered daily for 14 days by macroscopic method; type: organism-based; conditions: in vivo, 336 h
Salmonella typhimurium [19] = assay: Genotoxicity in Salmonella typhimurium TAMix after 90 mins by Ames test; type: toxicity; conditions: salmonella enterica subsp. enterica serovar typhimurium, 1.5 h
Mus musculus [20] = assay: Toxicity in CD1 mouse assessed as mortality at 10 mg/kg, ip qd administered daily for 14 days; type: organism-based; conditions: in vivo, 336 h
Mus musculus [21] = assay: Toxicity in CD1 mouse heart at 10 mg/kg, ip qd administered daily for 14 days by macroscopic method; type: organism-based; conditions: in vivo, 336 h
[22] = as §1, with “PBS NAD+” for “PBS”
Brain [23] = assay: Prodrug activation in CD1 mouse brain at 10 mg/kg, ip qd after 24 hrs by LC-MS/MS analysis; type: organism-based; conditions: in vivo
[24] = Antioxidant activity assessed as DPPH free radical scavenging after 40 mins incubation in dark; type: functional
Salmonella typhimurium [25] = assay: Genotoxicity in Salmonella typhimurium TA98 after 90 mins by Ames test; type: toxicity; conditions: salmonella enterica subsp. enterica serovar typhimurium, 1.5 h
[26] = Selectivity index, ratio of IC50 for equine serum BChE to IC50 for AChE in human erythrocytes; type: cell-based
Cholinesterase = Cholinesterase (Equus caballus, UniProt P81908)
Description: Inhibition of equine serum BChE using butyrylthiocholine iodide as substrate preincubated for 5 mins followed by substrate addition measured every minute for 10 mins by Ellman's spectrophotometric method

Acetylcholinesterase [27] = target: T1, Acetylcholinesterase; assay: Inhibition of AChE (unknown origin)
[28] = target: Amyloid-beta precursor protein (Homo sapiens) (UniProt P05067); assay: Inhibition of amyloid beta (1 to 42 residues) (unknown origin) self-aggregation at 10 uM measured every 5 mins by ThT-fluorescence assay
SH-SY5Y = assay: Cytotoxicity against human SH-SY5Y cells assessed as […] in cell viability at 0.1 to 1 mM after 24 hrs by fluorescence assay; type: cell-based; conditions: 1000 µM
Acetylcholinesterase [29] = target: T1, Acetylcholinesterase; assay: Inhibition of human recombinant AChE-induced human amyloid beta (1 to 40 residues) aggregation at 100 uM after 24 hrs by thioflavine T fluorescence method

Sequence of Cholinesterase (P81908 whole entry): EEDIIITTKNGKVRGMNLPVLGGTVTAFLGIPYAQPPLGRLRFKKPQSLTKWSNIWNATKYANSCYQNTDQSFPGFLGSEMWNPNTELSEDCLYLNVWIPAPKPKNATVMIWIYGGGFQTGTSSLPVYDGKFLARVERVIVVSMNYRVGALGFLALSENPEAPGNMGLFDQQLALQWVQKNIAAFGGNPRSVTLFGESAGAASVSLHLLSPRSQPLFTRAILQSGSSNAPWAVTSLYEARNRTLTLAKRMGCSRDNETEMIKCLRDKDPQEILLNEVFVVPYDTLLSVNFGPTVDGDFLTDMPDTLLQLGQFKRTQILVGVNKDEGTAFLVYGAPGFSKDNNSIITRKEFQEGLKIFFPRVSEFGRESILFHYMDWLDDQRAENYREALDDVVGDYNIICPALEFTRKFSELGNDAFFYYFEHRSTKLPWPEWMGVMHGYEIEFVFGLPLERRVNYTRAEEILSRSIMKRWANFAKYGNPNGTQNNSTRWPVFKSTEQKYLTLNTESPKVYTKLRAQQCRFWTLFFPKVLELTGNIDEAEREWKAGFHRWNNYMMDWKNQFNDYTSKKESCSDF
T1 sequence (P22303 whole entry): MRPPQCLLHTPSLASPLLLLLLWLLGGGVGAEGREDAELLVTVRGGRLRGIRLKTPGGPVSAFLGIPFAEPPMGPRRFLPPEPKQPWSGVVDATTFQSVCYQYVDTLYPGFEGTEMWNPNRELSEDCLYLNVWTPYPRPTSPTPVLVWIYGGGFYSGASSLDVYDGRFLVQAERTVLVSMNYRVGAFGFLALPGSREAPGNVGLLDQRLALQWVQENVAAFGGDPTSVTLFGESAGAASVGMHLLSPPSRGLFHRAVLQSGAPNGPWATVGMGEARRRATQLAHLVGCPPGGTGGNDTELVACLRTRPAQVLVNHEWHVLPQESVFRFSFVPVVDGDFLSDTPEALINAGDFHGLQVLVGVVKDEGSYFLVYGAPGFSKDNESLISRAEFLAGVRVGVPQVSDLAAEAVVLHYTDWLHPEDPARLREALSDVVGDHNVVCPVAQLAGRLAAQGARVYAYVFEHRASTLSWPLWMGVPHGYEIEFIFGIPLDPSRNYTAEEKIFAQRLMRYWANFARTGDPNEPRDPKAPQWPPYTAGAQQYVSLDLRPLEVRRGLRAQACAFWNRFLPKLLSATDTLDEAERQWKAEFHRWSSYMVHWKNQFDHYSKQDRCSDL
Sequence of Amyloid-beta precursor protein (Homo sapiens) (P05067 whole entry, the tested form may be a part): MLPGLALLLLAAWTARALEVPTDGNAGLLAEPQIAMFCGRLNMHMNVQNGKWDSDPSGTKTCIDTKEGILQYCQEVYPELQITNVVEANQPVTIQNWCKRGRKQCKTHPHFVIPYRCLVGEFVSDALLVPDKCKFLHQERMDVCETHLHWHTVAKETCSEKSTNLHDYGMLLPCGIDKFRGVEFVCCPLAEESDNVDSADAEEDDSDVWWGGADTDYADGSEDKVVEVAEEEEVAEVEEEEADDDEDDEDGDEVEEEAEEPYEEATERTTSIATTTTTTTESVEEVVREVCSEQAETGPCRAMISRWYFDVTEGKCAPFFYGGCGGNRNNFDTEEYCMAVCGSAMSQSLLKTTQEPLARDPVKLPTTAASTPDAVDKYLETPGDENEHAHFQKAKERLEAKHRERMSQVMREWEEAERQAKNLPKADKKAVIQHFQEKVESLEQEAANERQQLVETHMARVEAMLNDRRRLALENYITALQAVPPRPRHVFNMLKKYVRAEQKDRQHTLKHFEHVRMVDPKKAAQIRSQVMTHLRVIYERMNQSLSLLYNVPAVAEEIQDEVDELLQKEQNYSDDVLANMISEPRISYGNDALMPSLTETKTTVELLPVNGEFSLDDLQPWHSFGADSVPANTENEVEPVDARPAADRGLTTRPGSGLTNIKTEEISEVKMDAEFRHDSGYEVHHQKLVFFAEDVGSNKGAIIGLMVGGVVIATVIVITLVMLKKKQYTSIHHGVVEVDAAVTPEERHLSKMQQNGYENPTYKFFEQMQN

Structure (SMILES): COc1cc2c(cc1OC)C(=O)C(CC1C=CN(Cc3cccc(Cl)c3)C=C1C(N)=O)C2 (stereo not given)
- Drug metabolism [1]: 77.9%
- Drug metabolism [2]: 1.6%
- Activity (Mus musculus [3]): Non-Toxic
- LD50 at 48 h [4]: > 50 mg/kg
- Papp at 4 h, 100 µM [5]: 25.6 ×10⁻⁶ cm/s
- Activity (Mus musculus [6]): Non-Toxic
- Activity (Mus musculus [7]): Non-Toxic
- Drug metabolism (Brain [8]): Metabolite_Notdetected
- Drug metabolism [9]: 28%
- Drug metabolism [10]: Metabolite detected
- Activity (Mus musculus [11]): Non-Toxic
- Activity (Mus musculus [12]): Non-Toxic
- Activity (Mus musculus [13]): Non-Toxic
- Activity (Mus musculus [14]): Non-Toxic
- IC50 (Acetylcholinesterase [15]): > 1 µM
- Drug metabolism [16]: 2.9%
- Activity (Mus musculus [17]): Non-Toxic
- Activity (Mus musculus [18]): Non-Toxic
- Activity (Salmonella typhimurium [19]): Non-Toxic
- Activity (Mus musculus [20]): Non-Toxic
- Activity (Mus musculus [21]): Non-Toxic
- Drug metabolism [22]: 39.6%
- Drug metabolism (Brain [23]): Metabolite_Notdetected
- EC50 [24]: 90 µM
- Activity (Salmonella typhimurium [25]): Non-Toxic

Structure (SMILES): CC(=O)C1=CN(Cc2ccccc2C)C=CC1CC1Cc2cc(Cl)ccc2C1=O (stereo not given)
- IC50 (Acetylcholinesterase [15]): > 1 µM

Structure (SMILES): CC(=O)C1=CN(Cc2ccccc2C)C=CC1CC1Cc2cc3c(cc2C1=O)OCO3 (stereo not given)
- Papp at 4 h, 100 µM [5]: 14.3 ×10⁻⁶ cm/s
- IC50 (Acetylcholinesterase [15]): > 1 µM

Structure (SMILES): CNC(=O)c1c[n+](Cc2ccccc2C)ccc1CC1Cc2cc(OC)c(OC)cc2C1=O (racemic)
- IC50 (Acetylcholinesterase [15]): 1 to 10 µM

Structure (SMILES): COc1cc2c(cc1OC)C(=O)C(Cc1cc[n+](Cc3ccccc3Cl)cc1C(C)=O)C2 (racemic)
- Ratio IC50 [26]: 106
- IC50 (Acetylcholinesterase [15]): 0.018 µM
- IC50 (Cholinesterase): 1.92 µM

Structure (SMILES): COc1cc2c(cc1OC)C(=O)C(Cc1cc[n+](Cc3cccc(C)c3)cc1C(C)=O)C2 (racemic)
- Ratio IC50 [26]: 427
- IC50 (Acetylcholinesterase [15]): 0.014 µM
- IC50 (Cholinesterase): 5.99 µM

Structure (SMILES): CC(=O)c1c[n+](Cc2ccccc2C)ccc1CC1Cc2cc(C)ccc2C1=O (racemic)
- Ratio IC50 [26]: 41.9
- IC50 (Acetylcholinesterase [15]): 0.091 µM
- IC50 (Cholinesterase): 3.81 µM

Structure (SMILES): COC(=O)C1=CN(C)c2cccc(OC(=O)N(C)C)c2C1
- IC50 (Acetylcholinesterase [27]): > 1000 µM

Structure (SMILES): COc1cc2c(cc1OC)C(=O)C(Cc1cc[n+](Cc3ccccc3C)cc1C(N)=O)C2 (racemic)
- IC50 (Acetylcholinesterase [15]): 0.678 µM
- IC50 (Cholinesterase): > 10 µM

Structure (SMILES): CC(=O)c1c[n+](Cc2ccccc2C)ccc1CC1Cc2cc(Cl)ccc2C1=O (racemic)
- Ratio IC50 [26]: 13.9

Structure (SMILES): CC(=O)c1c[n+](Cc2ccccc2C)ccc1CC1Cc2cc(C)c(C)cc2C1=O (racemic)
- Ratio IC50 [26]: 6.95
- IC50 (Acetylcholinesterase [15]): 0.0277 µM

Structure (SMILES): CC(=O)C1=CN(Cc2ccccc2C)C=CC1CC1Cc2cc(C)ccc2C1=O (stereo not given)
- IC50 (Acetylcholinesterase [15]): > 1 µM

Structure (SMILES): COC(=O)c1cc2c(OC(=O)N(C)C)cccc2[n+](C)c1
- IC50 (Acetylcholinesterase [27]): 0.02 µM

Structure (SMILES): COc1cc2c(cc1OC)C(=O)C(Cc1cc[n+](Cc3ccccc3)cc1C#N)C2 (racemic)
- IC50 (Acetylcholinesterase [15]): 0.00292 µM

Structure (SMILES): COc1ccc2c(c1)CC(Cc1cc[n+](Cc3ccccc3C)cc1C(C)=O)C2=O.[Br-] (racemic)
- Papp at 4 h, 100 µM [5]: 0.3 ×10⁻⁶ cm/s
- Ratio IC50 [26]: 133

Structure (SMILES): COC(=O)c1c[n+](Cc2ccccc2C)ccc1CC1Cc2cc(OC)c(OC)cc2C1=O (racemic)
- Ratio IC50 [26]: 309
- IC50 (Acetylcholinesterase [15]): 0.0058 µM
- IC50 (Cholinesterase): 1.79 µM

Structure (SMILES): CC(=O)c1c[n+](Cc2ccccc2C)ccc1CC1Cc2cc3c(cc2C1=O)OCO3 (racemic)
- Ratio IC50 [26]: 26.9

Structure (SMILES): CCN(C)C(=O)Oc1cccc([C@H](C)N(C)C)c1 [RIVASTIGMINE]
- LD50 at 48 h [4]: 6.2 mg/kg

Structure (SMILES): CNC(=O)c1c[n+](Cc2ccccc2)ccc1CC1Cc2cc(OC)c(OC)cc2C1=O (racemic)
- IC50 (Acetylcholinesterase [15]): > 1 µM
- IC50 (Cholinesterase): 4.77 µM

Structure (SMILES): COc1cc2c(cc1OC)C(=O)C(CC1CCN(Cc3ccccc3)CC1)C2 (stereo not given) [DONEPEZIL]
- LD50 at 48 h [4]: 22.5 mg/kg
- Activity [24]: inactive

Structure (SMILES): COc1cc2c(cc1OC)C(=O)C(CC1C=CN(Cc3ccccc3C)C=C1C(N)=O)C2 (stereo not given)
- IC50 (Acetylcholinesterase [15]): > 1 µM

Structure (SMILES): COc1cc2c(cc1OC)C(=O)C(Cc1cc[n+](Cc3cccc(Cl)c3)cc1C(N)=O)C2.[Br-] (racemic)
- LD50 at 48 h [4]: 70 mg/kg
- Papp at 4 h, 100 µM [5]: 0.15 ×10⁻⁶ cm/s
- inhibition [28]: 25%
- Activity (SH-SY5Y): Non-Toxic
- IC50 (Acetylcholinesterase [15]): 0.041 µM
- Activity (Salmonella typhimurium [19]): Non-Toxic
- IC50 (Cholinesterase): > 10 µM
- Activity (Salmonella typhimurium [25]): Non-Toxic
- inhibition (Acetylcholinesterase [29]): 41%

Structure (SMILES): COc1cc2c(cc1OC)C(=O)C(Cc1cc[n+](Cc3cccc(Cl)c3)cc1C(C)=O)C2 (racemic)
- Ratio IC50 [26]: 1020
- IC50 (Acetylcholinesterase [15]): 0.00327 µM

Structure (SMILES): COc1ccc2c(c1)CC(CC1C=CN(Cc3ccccc3C)C=C1C(C)=O)C2=O (stereo not given)
- Papp at 4 h, 100 µM [5]: 14.8 ×10⁻⁶ cm/s
- IC50 (Acetylcholinesterase [15]): > 1 µM

Structure (SMILES): COC(=O)c1c[n+](Cc2ccccc2)ccc1CC1Cc2cc(OC)c(OC)cc2C1=O (racemic)
- Ratio IC50 [26]: 119
- IC50 (Acetylcholinesterase [15]): 0.0256 µM
- IC50 (Cholinesterase): 3.06 µM
